Consider nine molecules from patent publication US7897401B2, “Control of apoptosis by controlling the propensity of ceramide channel formation” (University of Maryland, College Park, priority 2005, dated 2011).

Type in all cases: biochemical
Assay [1] concerns C16-ceramide channels in the MOM of yeast mitochondria. Kind of assay: Complex IV accessibility assay, isolated yeast mitochondria. The method, then: (§1) The ability of the naturally-occurring C16-ceramide to form channels in the mitochondrial outer membranes of isolated yeast mitochondria was assessed via the complex IV accessibility assay. This assay measures the bidirectional flux of cytochrome c across the mitochondrial outer membrane (MOM) by monitoring its oxidation by complex IV of the mitochondrial inner membrane electron transport chain. The initial rate of cytochrome c oxidation when expressed as a percent of the rate measured in mitochondria with damaged outer membranes is a good measure of the permeability of the MOM to proapoptotic proteins. This method has an advantage over simply looking for the release of cytochrome c because both channel prevention and reversal by a potential inhibitor can be evaluated.
Thus, mitochondria are isolated from wild type yeast and yeast strains expressing either human Bcl-2 or Bcl-xL according to previously published methods (Lee, A. et al. (1998) “THE ROLE OF YEAST VDAC GENES ON THE PERMEABILITY OF THE MITOCHONDRIAL OUTER MEMBRANE,” J. Membr. Biol. 161:173-181). Isolated yeast mitochondria are incubated with the naturally occurring C16-ceramide and its ability to form channels is evaluated according to the complex IV accessibility assay (Siskind, L. J. et al. (2002) “CERAMIDE CHANNELS INCREASE THE PERMEABILITY OF THE MITOCHONDRIAL OUTER MEMBRANE To SMALL PROTEINS,” J. Biol. Chem. 277:26796-26803). This assay measures the CN-sensitive oxidation of exogenously-added reduced cytochrome c by cytochrome c oxidase of the inner membrane. It measures the permeability of the mitochondrial outer membrane (MOM) to cytochrome c. […] Mitochondria are incubated with test agents (e.g., C16-ceramide) for a predetermined period of time (e.g., 5-20 minutes), reduced cytochrome c is added and the absorbance is monitored at 550 nm. […]
The complex IV accessibility measures of the permeability of the MOM. The initial rate is expressed as a percentage of the rate of cytochrome c oxidation in mitochondria whose outer membranes are ruptured by hypotonic shock. […]

Assay [2] has as its system ceramide channels in the mitochondrial outer membrane (MOM). Kind of assay: Adenylate kinase release assay in isolated rat liver mitochondria. The note with it: for effect of preincubation on C16-ceramide permeabilization of the MOM and adenylate kinase release: 5 min preincubation, C16-ceramide 40 μg/mL, 10 min, low concentration potentiates, higher inhibits. The method, then:
The preparation yielded a mitochondrial suspension containing 10 mg of protein per mL. […] The mitochondria were then pelleted at 14,000 g for 5 min at 4° C. and the supernatant was kept on ice until assayed. […] The enzymes were added to the rest of the reaction mixture 1 min before the addition of the mitochondrial supernatant to allow a trace of ATP to be consumed. The activity of adenylate kinase was detected as an increase in absorbance at 340 nm. Since the activity of the kinase decays with time, even on ice, experiments were performed in sets and the activity of the first supernatant was assayed again at the end of the set. The values were fitted to a first order decay and all values within the set were corrected for the decay of the activity, based on the time delay before assay.
To determine the effect of sphingosine pretreatment on ceramide permeabilization of the mitochondrial outer membrane, mitochondria were incubated at room temperature in the presence of varying concentrations of sphingosine for […] before addition of ceramide and incubation for 10 min. Untreated mitochondria and mitochondria hypotonically lysed (20 μl into 1.2 ml water) served as negative and positive controls, respectively.
Experiments with C16-ceramide were performed in a similar way except as follows. The mitochondria were suspended in the above medium except that the 1 mM Tris buffer was replaced by 5 mM HEPES. To 1.0 mL of this medium at room temperature (RT) was added 17 μL of mitochondrial suspension that had been kept on ice at a concentration of 4 mg/mL. The final mitochondrial protein concentration during the experiment was 80 μg/mL. In the case of shocked mitochondria, the 1.0 mL of medium was replaced by water. Sphingosine was added, where appropriate, from a 0.25 mg/mL solution in DMSO. Typically 4-7 incubations were run in parallel. All samples were incubated for 5 min at RT. Then some samples received 0.4 mL of fatty acid depleted bovine serum albumin (BSA), 25 mg/mL, followed immediately by 20 μL of C16-ceramide dissolved in isopropanol at 2 mg/mL. After a 10-min incubation at RT, 10 μL of 4 mM PMSF was added followed by centrifugation. In these experiments 0.3 mL of mitochondrial supernatant was added to the adenylate kinase reaction mixture.

Assay [3] is described as follows: Ability of sphingolipids to form channels in membranes. From the text:
The present invention establishes that sphingosine is capable of directly disassembling ceramide channels, thus proving the existence of this novel anti-apoptotic regulatory step. The ability of sphingosine, sphingosine-1-phosphate ([…]) and ceramide-1-phosphate the ability to form channels was investigated.

A further assay has as its system mammalian MOM. Kind of assay: Ceramide-induced permeabilization of mammalian MOM. To be noted: C16-ceramide; read-out: IC50 for inhibition of C16-ceramide-induced permeabilization of mammalian MOM.
A further assay concerns yeast mitochondria. The assay can be described thus: Ceramide-induced permeabilization in yeast mitochondria.
In assay [4] the test system is ceramide channels in the MOM of rat liver mitochondria. The assay can be described thus: Complex IV accessibility assay (cytochrome c oxidation), isolated rat liver mitochondria.
From the text: The amount of ceramide that needs to be added to mitochondria to achieve permeabilization of the MOM to proteins is high compared to physiological levels. However, it is not the absolute ceramide concentration in solution that is important, but rather the concentration of ceramide in the membrane. In addition, only a small percentage of the ceramide added to the solution actually inserts into the membrane. This issue was directly addressed by using radiolabeled ceramide and simultaneously measuring how much ceramide inserts into rat liver mitochondria and how much permeabilization is achieved in the MOM by measuring the accessibility of exogenously added cytochrome c. […] Levels measured in mitochondria in the early stages of apoptosis are 4 pmoles per nmole. Thus, the results are well within the physiological range. Note that after correcting for the membrane partitioning, long and short-chain ceramide have equal potency as expected from the model of the ceramide channel.
as §1
Thus, mitochondria are isolated from wild type yeast and yeast strains expressing either human Bcl-2 or Bcl-xL according to previously published methods (Lee, A. et al. (1998) “THE ROLE OF YEAST VDAC GENES ON THE PERMEABILITY OF THE MITOCHONDRIAL OUTER MEMBRANE,” J. Membr. Biol. 161:173-181). Isolated yeast mitochondria are incubated with the naturally occurring C16-ceramide and its ability to form channels is evaluated according to the complex IV accessibility assay (Siskind, L. J. et al. (2002) “CERAMIDE CHANNELS INCREASE THE PERMEABILITY OF THE MITOCHONDRIAL OUTER MEMBRANE To SMALL PROTEINS,” J. Biol. Chem. 277:26796-26803). This assay measures the CN-sensitive oxidation of exogenously-added reduced cytochrome c by cytochrome c oxidase of the inner membrane. […] Mitochondria are incubated with test agents (e.g., C16-ceramide) for a predetermined period of time (e.g., 5-20 minutes), reduced cytochrome c is added and the absorbance is monitored at 550 nm. […]

The test system of assay [5] is ceramide channel in planar phospholipid membrane. Kind of assay: Electrophysiological recordings on planar phospholipid membranes. To be noted: 0.15 μM protein added while stirring, voltage clamp, FIG. 16. From the text:
Planar phospholipid membranes were produced by the monolayer method (Montal, M. et al. (1972) “FORMATION OF BIMOLECULAR MEMBRANES FROM LIPID MONOLAYERs AND A STUDY OF THEIR ELECTRICAL PROPERTIES,” Proc. Natl. Acad. Sci. USA 69:3561-3566) as modified by Colombini, M. (1987) (“CHARACTERIZATION OF CHANNELS ISOLATED FROM PLANT MITOCHONDRIA,” Methods Enzymol. 148:465-475), across a 100-μm-diameter hole in a Saran partition. Monolayers were produced using a solution of 0.5% w/v asolectin, 0.5% w/v DiPhyPC, 0.1% w/v cholesterol in hexane. This technique produces solvent-free phospholipid membranes whose lipid composition (focusing on the polar head-groups) is similar to that found in the mitochondrial outer membrane. It differs from the natural membrane in lacking proteins.
The aqueous solutions contained 1 mM MgCl2, and 5 mM Pipes pH 6.8 with KCl varying from 0.10 M to 1.0 M. The KCl concentration on one side of the membrane, referred to as the “trans” side, was always 0.10 M, whereas the other side (the “cis” side) was adjusted as needed. The transmembrane voltage was electronically clamped and the current through the membrane was recorded. The voltage values indicated are the voltage differences across the membrane cis side minus trans side.
C2-ceramide was stirred into the aqueous solution on each side of the membrane from a solution in DMSO, generally 0.5 mg/ml. Single or multiple additions, typically […] each, yielding a final concentration of 2 μg/ml, were made to achieve a desired level of conductance. Sphingosine additions of 5 μl were made from a solution in DMSO (4 mg/mL) yielding a final concentration of 4 μg/mL.
The observation that anti-apoptotic Bcl-2 family proteins inhibit ceramide channel formation in isolated yeast and rat liver mitochondria correlates with previous reports showing inhibition of ceramide-induced apoptosis in whole cells by these proteins. Thus the results directly tie ceramide-induced mitochondrial-mediated apoptosis with the Bcl-2 family of proteins known to regulate these events. To address whether the antiapoptotic proteins act directly on ceramide channels or work by an indirect action, their affects on ceramide channels in solvent-free planar phospholipid membranes was tested. This is a defined system free of other proteins. When C16-ceramide is added to the aqueous solution bathing one side of a planar phospholipid membrane, it results in discontinuous increases in conductance under voltage-clamp conditions, the defining characteristic of channel formation in membranes. These conductance increments are the enlargement of one ceramide channel rather than the formation of multiple ceramide channels in parallel (Siskind, L. J. et al. (2003) “ENLARGEMENT AND CONTRACTURE OF C2-CERAMIDE CHANNELS,” Biophys. J. 85:1560-1575). […]

Assay [6] has as its system ceramide channels in mitochondrial outer membranes. The assay can be described thus: Dihydroceramide inhibition of ceramide channel formation in mitochondrial outer membranes (rate of oxidation of exogenously-added cytochrome c). From the text:
The permeability was monitored by recording the rate of oxidation of exogenously-added cytochrome c. Ceramide (C2) was present at all data points except for the highest amount of dihydroceramide (DHC2) added (29 nmol).

Turning to `CCCCCCCCCCCCC/C=C/[C@@H](O)[C@H](CO)NC(=O)CCCCCCCCCCCCCCC` [C16-ceramide], the “channel formation in the MOM of isolated wild-type yeast mitochondria” value in assay [1] (10 min incubation, FIG. 13A) was “forms channels”.

Turning to `CCCCCCCCCCCCC/C=C/[C@H](O)[C@@H](N)CO` [L-threo sphingosine], the “permeabilization of the MOM to adenylate kinase after removal of excess compound with BSA” value in assay [2] (2.4 μg/mL for 5 min, then fatty acid depleted BSA, no ceramide added) was “no penneabilization of the MOM to adenylate kinase was observed”. For the same molecule, the “effect of preincubation on C16-ceramide permeabilization of the MOM and adenylate kinase release” value in assay [2] is given as “same biphasic effect”; in assay [2] (listed as L-sphingosine), “same results as D-sphingosine”.

For `CCCCCCCCCCCCC/C=C/[C@@H](O)[C@@H](N)COP(=O)(O)O` [S-1-P, sphingosine-1-phosphate], the “ability to form channels” value in assay [3] was “destabilized membranes”.

What is called IC50 is the concentration that inhibits the measured activity by half. As for `CCCCOc1cc(C(=O)NCCN(CC)CC)c2ccccc2n1` [dibucaine], in the assay with mammalian MOM, the IC50 was 230 µM. Moreover, in the assay on yeast mitochondria, the “effect on ceramide C2-induced permeabilization” value is “inhibited” and the “effect on ceramide C16-induced permeabilization” value is recorded as “somewhat potentiated”.

`CC(C)NCC(O)COc1cccc2ccccc12` (centres unmarked) [propranolol]: in the assay with mammalian MOM, the IC50 is 410 µM. In addition, in the assay on yeast mitochondria, the “effect on ceramide C2-induced permeabilization” value is on record as “inhibited” and the “effect on ceramide C16-induced permeabilization” value is on record as “somewhat potentiated”.

In the case of “Bcl-2: full-length human Bcl-2 expressed in yeast cells”, the “sensitivity to C16-ceramide channel formation of mitochondria from yeast expressing the protein” value in assay [1] (full-length human Bcl-2 expressed in yeast vs empty vector control) is reported as “resistant to C16-ceramide channel formation”.

On to “FL Bcl-xL: purified recombinant full-length anti-apoptotic protein Bcl-xL”, for which the “level at which disassembly of preformed C16-ceramide channels was observed” value in assay [4] (C16-ceramide before protein (reversal), biphasic, FIG. 15A) was no more than 5 µg. Moreover, in assay [4] (protein 10 min before 20 μM C16-ceramide 10 min, FIG. 15A), the “level giving almost complete prevention of C16-ceramide channel formation” value was found to be 1.5 µg. Moreover, the “effect on conductance of a stable C16-ceramide channel” value in assay [5] was “dramatic decrease in the ceramide conductance to baseline”. For the same molecule, the “effect on C16-ceramide channels (prevention and reversal) in MOM of isolated yeast mitochondria” value in assay [1] (20 μg protein, 20 μM C16-ceramide, 10 min each, FIG. 13D-F) is “prevention and reversal of the C16-ceramide channels was observed”.

ceramide-1-phosphate [C-1-P]: in assay [3], the “ability to form channels” value is given as “without reproducible effect”.

With dihydroceramide, in assay [6], the “effect on already formed ceramide channels” value is listed as “does not induce channel disassembly”. Moreover, the “level that inhibits ceramide channel formation, relative to the ceramide level” value in assay [6] (found in liposomes and isolated mitochondria, FIG. 11 with C2-ceramide) is listed as 10%. In assay [4] (inserts into mitochondrial membranes to the same degree as ceramide), the “permeabilization of the MOM to cytochrome c” value is listed as “lack of effect”.
